Results reported in publication PMC3650558, “A Yeast Chemical Genetic Screen Identifies Inhibitors of Human Telomerase” (Chemistry & Biology, 2013).
“Also recorded” adds a separate entry of the source.

Legend:
[1] = molecular target: T1, telomerase activity in crude HeLa cell extracts (Homo sapiens, UniProt O14746); assay: TRAP assay in crude HeLa cell extracts; assay type: biochemical
T1 construct: telomerase activity in crude HeLa cell extracts; endogenous in cells; host or cells: HeLa
Experimental: As a control, we observed no inhibition of the Taq polymerase used for amplification of telomerase extension products in the TRAP (data not shown). In addition, as negative controls, two other compounds that were not identified as hits (SPB03922 and RH00646) were tested and confirmed to exert no effect upon telomerase activity in vitro (Figure 3B). Using a semiquantitative assay for the detection of telomerase elongation products (ELISA-TRAP) the in vitro half maximal inhibitory concentration (IC50) values of the compounds fell between 1 and 6.5 μM (Figures 3C and 3D). Similar IC50 values were also observed against purified recombinant murine telomerase (data not shown). These values are higher than that of BIBR1532 (IC50 = 0.1 μM) ([Damm et al., 2001]; [Pascolo et al., 2002]) but within a concentration range typical of first hits from commercial libraries. SEW05920, SPB03924, and CD11359 are heteroaromatic small molecules that differ structurally from BIBR1532 (Figures 3A and S2F).
Supplemental Experimental Procedures
Follow-up analysis of compounds identified in HTS
From the high-throughput analysis, 51 compounds with a neutral effect or that rescued the growth of strains expressing active human telomerase (relative to DMSO) were picked from the master HTS plates and re-analyzed (Figure 2C, and data not shown). These compounds were tested on a control strain, W303-1a expressing hTR and Cdc13-hTERT lacking the Cdc13 DBD, and 7 compounds were excluded from further analysis because they elicited a non-specific growth delay of the control strain. The remaining 44 compounds were subjected to secondary screens against the query strain expressing active human telomerase (n=2). Based on these results, twenty-eight compounds were purchased for further verification against the control and […]
(§1) Telomerase activity was assessed using the Telomere Repeat Amplification Protocol (TRAPeze, Millipore) or ELISA-TRAP (TeloTAGGG Telomerase PCR ELISA-PLUS, Roche Diagnostics) following manufacturers’ instructions. […]

[2] = molecular target: T2, purified recombinant human telomerase (Homo sapiens, UniProt O14746); assay: Telomerase repeat amplification protocol (TRAP) assay, purified enzyme; assay type: biochemical; details: 200, 100, 20, 10 or 2 μM; 15 min preincubation
T2 construct: made in house
Experimental: Figure 3 Assessment of Human Telomerase Inhibition In Vitro (A) Chemical structures of BIBR1532 and hit compounds SEW05920, SPB03924, and CD11359. (B) Representative gel of the telomerase repeat addition protocol (TRAPeze, Millipore) after addition of RJC00417, SEW05920, SPB03922, and RH00646 to recombinant human telomerase purified in vitro ([Beattie et al., 1998]; [Oulton and Harrington, 2004]) (n = 3). Lanes 1–5, treatment with 200, 100, 20, 10, or 2 μM RJC00417; lanes 6–10, treatment with 200, 100, 20, 10, or 2 μM SEW05920; lanes 11–15, treatment with 200, 100, 20, 10, or 2 μM SPB03922; lanes 16–20, treatment with 200, 100, 20, 10, or 2 μM RH00646; lane 21, treatment with 2% v/v DMSO; lane 22, pretreatment with ribonuclease A. IC; internal PCR control (36 base pairs [bp]). (C) Representative gel of the relative telomerase activity (RTA) by ELISA-TRAP (TeloTAGGG Telomerase PCR ELISA-PLUS, Roche Diagnostics) of purified human telomerase upon incubation with BIBR1532 (lanes 1–4), SEW05920 (lanes 5–8), SPB03924 (lanes 11–14), CD11359 (lanes 15–18) (concentration indicated in micromolar), 2% v/v DMSO (lane 9), or heat (lane 10). IC; internal PCR control (216 bp). (D) Levels of RTA (%) after normalization to a 216 bp internal control, as shown in (C). Error bars indicate SD, n = 3. For synthesis of BIBR1532, see Figure S2.
As a control, we observed no inhibition of the Taq polymerase used for amplification of telomerase extension products in the TRAP (data not shown). […]
From the high-throughput analysis, 51 compounds with a neutral effect or that rescued the growth of strains expressing active human telomerase (relative to DMSO) were picked from the master HTS plates and re-analyzed (Figure 2C, and data not shown). […]
as §1

[3] = tested on: W303-1a cells expressing Cdc13-hTERT-FLAG + hTR (active human telomerase); assay: Yeast growth rescue screen (time to reach OD595 of 0.62 relative to DMSO); assay type: cell-based, S. cerevisiae; details: for Z Score: z = (x − μ)/σ of normalized time difference over all compounds in the bioactive library
Experimental: These 678 compounds were selected from a 50,000 member Maybridge library based upon a spectrum of growth inhibitory bioactivity in a drug pump-deficient yeast strain ([Ishizaki et al., 2010]). […] In each 96-well assay plate, growth of the query strain in the presence of compound (20 μM), beginning at the onset of the experimental growth phase (i.e., time course 2, from 43 hr onward), was normalized against DMSO treatment (Figures 2C and 2D; Figures S2D and S2E).
To conduct the HTS (Figure 2A), 98 μl (3 × 10^5 cells per milliliter) was dispensed into 96-well clear flat-bottomed microplates (Corning Costar) using a Biomek FX (Beckman Coulter). A small molecule bioactive library of 678 compounds was utilized for the screen, consisting of compounds selected from the Maybridge collection (Thermo Fisher Scientific). […] DMSO at 2% (v/v) and 20 μM cycloheximide (Sigma) final concentration were added as controls to each assay plate, into alternate wells in columns 1 and 12 using the Span 8 module of the Biomek FX. Nine plates were analyzed, 80 compounds per plate, with 16 wells for controls. After compound addition, the plates were sealed and followed for time course 1 (up to 39 hr) on a Sunrise plate reader (Tecan) at absorbance 595 nm, maintained at 30°C and shaking at 564 rpm. After time course 1, cells in assay plates were diluted to 3 × 10^5 cells per milliliter in fresh media containing galactose using the Biomek FX. The plates were preincubated in galactose-containing media at 30°C for 3 hr (to allow a period of recovery from the stationary phase in the absence of compound), 2 μl of each compound or control was added to plates as described earlier, returned to the plate readers, and followed for time course 2 (up to 86 hr), for a total of ∼128 elapsed hours.
Growth curves were analyzed using a growth curve analysis tool implemented in R. After smoothing of growth curves, the time required for cells induced with human telomerase to reach an OD595 of 0.62 in the presence of each compound during time course 2 was derived using a data-based approach ([Warringer and Blomberg, 2003]). The time to reach an OD595 of 0.62 for each compound was normalized to the average DMSO value from each assay plate (to arrive at a normalized value, x, for each compound) and used to generate heatmaps as shown in Figure 2C. Z scores were calculated based on the equation: z = (x − μ)/σ, where μ is the mean time difference for all compounds in the bioactive library and σ is the SD for all compounds in the bioactive library.

pdr1DBD-cyc8 strain = assay: Growth of hyperpermeable yeast strain; details: 0.03-1 μM, irrespective of human telomerase expression status
W303-1a control strains = assay: Growth of control yeast strains; assay type: cell-based, S. cerevisiae; details: W303-1a cells alone; 500, 150, 50, 10 or 1 μM
[4] = molecular target: purified human telomerase; set-up: method as in Damm et al., 2001; Pascolo et al., 2002; details: human telomerase in vitro; ref Damm et al., 2001; Pascolo et al., 2002; cited from earlier work

T2 sequence (O14746 whole entry): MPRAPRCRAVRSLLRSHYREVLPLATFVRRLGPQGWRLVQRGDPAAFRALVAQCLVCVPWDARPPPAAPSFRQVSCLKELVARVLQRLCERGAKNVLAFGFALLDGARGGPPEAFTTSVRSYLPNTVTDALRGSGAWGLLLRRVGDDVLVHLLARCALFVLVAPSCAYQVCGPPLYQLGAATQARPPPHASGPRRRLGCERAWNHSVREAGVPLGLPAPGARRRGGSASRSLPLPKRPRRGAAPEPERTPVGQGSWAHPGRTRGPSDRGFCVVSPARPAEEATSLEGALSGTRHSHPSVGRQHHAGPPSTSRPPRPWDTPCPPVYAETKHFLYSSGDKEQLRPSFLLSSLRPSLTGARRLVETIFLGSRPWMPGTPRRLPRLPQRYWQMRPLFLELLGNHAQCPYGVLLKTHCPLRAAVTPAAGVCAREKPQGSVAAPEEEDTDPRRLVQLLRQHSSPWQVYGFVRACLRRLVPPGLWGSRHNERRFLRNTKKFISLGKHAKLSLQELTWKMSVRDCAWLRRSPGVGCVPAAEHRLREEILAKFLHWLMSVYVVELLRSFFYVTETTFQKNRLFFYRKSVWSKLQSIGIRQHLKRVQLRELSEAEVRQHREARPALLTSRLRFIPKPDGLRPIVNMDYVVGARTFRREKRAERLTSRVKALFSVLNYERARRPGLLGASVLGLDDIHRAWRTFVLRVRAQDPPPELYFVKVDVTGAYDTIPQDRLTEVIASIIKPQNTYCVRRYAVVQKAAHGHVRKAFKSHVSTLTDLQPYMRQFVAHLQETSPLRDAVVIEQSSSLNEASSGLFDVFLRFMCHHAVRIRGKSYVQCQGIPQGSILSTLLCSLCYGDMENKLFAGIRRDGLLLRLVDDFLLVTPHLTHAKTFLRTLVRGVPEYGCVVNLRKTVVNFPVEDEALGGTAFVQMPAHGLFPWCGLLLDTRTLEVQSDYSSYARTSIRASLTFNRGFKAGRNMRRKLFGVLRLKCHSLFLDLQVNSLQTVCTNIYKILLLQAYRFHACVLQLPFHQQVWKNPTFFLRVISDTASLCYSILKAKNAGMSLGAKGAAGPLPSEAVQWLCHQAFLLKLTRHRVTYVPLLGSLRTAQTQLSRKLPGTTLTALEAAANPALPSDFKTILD
T1 sequence (O14746 whole entry): as above
T1 sequence (O60832 whole entry partner): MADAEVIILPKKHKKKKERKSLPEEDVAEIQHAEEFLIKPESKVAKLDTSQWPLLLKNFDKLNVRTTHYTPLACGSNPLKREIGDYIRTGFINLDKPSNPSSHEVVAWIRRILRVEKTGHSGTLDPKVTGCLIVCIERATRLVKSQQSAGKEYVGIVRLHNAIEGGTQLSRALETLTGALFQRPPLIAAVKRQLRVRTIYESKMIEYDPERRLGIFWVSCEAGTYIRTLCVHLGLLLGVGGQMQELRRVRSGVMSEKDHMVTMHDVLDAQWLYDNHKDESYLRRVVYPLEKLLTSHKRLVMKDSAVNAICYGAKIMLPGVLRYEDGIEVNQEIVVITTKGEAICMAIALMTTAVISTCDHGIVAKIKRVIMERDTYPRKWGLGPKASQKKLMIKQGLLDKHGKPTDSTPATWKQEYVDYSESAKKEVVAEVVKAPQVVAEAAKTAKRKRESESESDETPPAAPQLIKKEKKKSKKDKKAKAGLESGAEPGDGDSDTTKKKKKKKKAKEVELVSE
T1 sequence (Q9NPE3 whole entry partner): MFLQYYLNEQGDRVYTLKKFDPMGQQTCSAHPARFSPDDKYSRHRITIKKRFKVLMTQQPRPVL
T1 sequence (Q9NX24 whole entry partner): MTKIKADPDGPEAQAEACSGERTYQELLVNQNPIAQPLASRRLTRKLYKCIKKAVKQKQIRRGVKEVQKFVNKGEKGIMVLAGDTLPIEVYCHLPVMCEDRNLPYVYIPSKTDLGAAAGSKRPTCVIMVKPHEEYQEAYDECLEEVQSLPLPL
T1 sequence (Q9NY12 whole entry partner): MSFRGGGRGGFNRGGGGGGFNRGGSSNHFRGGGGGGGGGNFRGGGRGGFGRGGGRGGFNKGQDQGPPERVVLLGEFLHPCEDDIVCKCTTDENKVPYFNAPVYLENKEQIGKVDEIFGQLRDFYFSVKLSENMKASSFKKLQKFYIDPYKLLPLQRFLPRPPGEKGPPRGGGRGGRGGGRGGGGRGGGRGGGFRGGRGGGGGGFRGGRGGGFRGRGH
T1 sequence (Q9BUR4 whole entry partner): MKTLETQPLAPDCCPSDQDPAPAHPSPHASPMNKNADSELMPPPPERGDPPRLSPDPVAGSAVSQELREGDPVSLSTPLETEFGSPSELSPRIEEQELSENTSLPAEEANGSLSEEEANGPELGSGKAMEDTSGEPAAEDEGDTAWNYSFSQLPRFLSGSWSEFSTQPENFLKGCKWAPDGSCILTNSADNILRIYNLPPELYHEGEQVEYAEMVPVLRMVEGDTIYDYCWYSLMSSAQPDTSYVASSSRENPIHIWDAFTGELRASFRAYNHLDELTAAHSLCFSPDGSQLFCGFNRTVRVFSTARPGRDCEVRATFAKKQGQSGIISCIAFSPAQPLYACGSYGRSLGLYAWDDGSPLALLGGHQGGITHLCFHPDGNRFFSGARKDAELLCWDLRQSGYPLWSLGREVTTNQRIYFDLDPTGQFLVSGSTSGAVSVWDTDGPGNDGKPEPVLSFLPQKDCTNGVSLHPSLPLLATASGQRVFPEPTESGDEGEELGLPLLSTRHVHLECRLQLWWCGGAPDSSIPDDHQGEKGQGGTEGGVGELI

| Compound | inhibition of telomerase activity in crude HeLa cell extracts (TRAP) [1] | inhibition of purified recombinant human telomerase (TRAP) [2] | growth recovery in follow-up screens ([3]; follow-up subscreens, re-plated from master HTS plate and repurchased compound) [h] | growth recovery in the initial HTS ([3]; initial HTS, 20 μM) | Z Score [3] | Time (hr) Difference at an OD595 of 0.62 Relative to DMSO ([3]; compound 20 μM, time course 2, growth rescue of strain expressing active human telomerase) [h] | toxicity in hyperpermeable strain pdr1DBD-cyc8 (pdr1DBD-cyc8 strain) | effect upon growth of control strains (W303-1a control strains) | IC50 [4] [nM] | effect upon growth of yeast expressing human telomerase ([3]; 500, 150, 50, 10 or 1 μM) |
| --- | --- | --- | --- | --- | --- | --- | --- | --- | --- | --- |
| Cc1ccc(S(=O)(=O)NC(=O)Nc2ccc(Sc3ccccc3)nc2Sc2ccccc2)cc1 [SEW05920] | dose-dependent inhibition | inhibited telomerase activity in vitro; also recorded: dose-dependent inhibition | ~8 | did not exhibit significant growth recovery | 1.7 |  |  |  |  |  |
| Cc1cc(C(=O)O/N=C(\N)CSc2ncccc2C(F)(F)F)no1 [SPB03924] | dose-dependent inhibition | dose-dependent inhibition |  |  | 2.3 | 12 |  |  |  |  |
| C/C(=C\C(=O)Nc1ccccc1C(=O)O)c1ccc2ccccc2c1 [BIBR1532, 2-[(E)-3-naphthalen-2-yl-but-2-enoylamino]-benzoic acid] |  |  |  |  |  |  | toxic; also recorded: cytotoxic across most concentrations | had no effect | 100 | had no effect |
| N=C(N)Nc1nc(-c2cc(Cl)sc2Cl)cs1 [CD11359] | dose-dependent inhibition | dose-dependent inhibition |  |  | 1.7 |  |  |  |  |  |
